Entries after “also recorded” stand apart in the source; their conditions may differ. Read-outs that look alike come from different tables or passages of the source.
Assays:
[1] = Test for hydrolytic stability in KH2PO4 buffer (HPLC); type: physicochemical; conditions: for hydrolytic stability / degradation: aqueous KH2PO4 buffer 100 mM, pH 7.4, 5.5 and 8.5 (all tested pH values), 100 mM compound, r.t.
Method: Both nucleosides were dissolved in aqueous KH2PO4 buffer (100 mM, pH=7.4, 5.5 and 8.5) in 100 mM concentration. The solutions were immediately analysed via HPLC (t=0 h) with subsequent HPLC analyses every 1.5 h or at indicated time points. As stationary phase an EC 250/4 NUCLEOSIL 120-3 C18 (Macherey-Nagel) chromatography column was used. The mobile phase consisted of water (buffer A) and acetonitrile (buffer B) at a flow-rate of 0.5 mL/min as follows: 0→25 min, 0→5% buffer B; 25 min→28 min, 5%→80%; 28 min→38 min, 80%; 38 min→43 min 80%→0%; 43 min→45 min, 0%.
Since one treatment cycle for AzadC goes over four weeks we decided to measure the stability at a time point related to a half cycle (14 d). NMR spectra were measured after keeping the solutions at r.t.

[2] = test system: mouse embryonic stem cells (mESC); conditions: from reference [19], cited from earlier work
[3] = HPLC stability test of a neutral solution in pure water (FIG. 5); type: physicochemical; conditions: 100 mM solutions in pure water, t=0 h to 6 d
Method: FIG. 5. HPLC investigation of a neutral solution of Decitabine 1 (left) versus the carbacyclic compound cAzaC 20 (right). 100 mM solutions of the compounds were kept in pure water and tested at t=0 h, 1.5 h, 3 h, 4.5 h, 6 h, 24 h, 6 d.

[4] = test system: mouse embryonic stem cells (mESC); experiment: Treatment of primed mESC, UHPLC-MS2 quantification of genome incorporation and mdC/hmdC levels; type: cell-based; conditions: for level incorporated into the genome: primed mESC
Method: Feeder independent wt J1 (strain 129S4/SvJae) cells were cultured in the presence of serum and LIF as previously described. They were routinely maintained on gelatinized plates in 2i/L medium. For priming experiments, 2i cultures were passaged when applicable in DMEM supplemented with FBS and LIF as above but lacking the inhibitors. For drug treatment, cells were moved into the primed state by removing 2i from the medium. Cells were incubated 2 d in DMEM supplemented with FBS and LIF in 6-well plates (VWR). After splitting, 2×10^5 cells were transferred into a 6-well plate culture dish and supplemented with either 1 μM (in 0.01% DMSO) or 5 μM cAzadC (in 0.05% DMSO) and treated for 72 h. After removal of the medium and washing the cells with DPBS, they were directly lysed with RLT^+ buffer as described in a previous publication.
The gDNA was isolated as described previously. The gDNA was directly subjected to a total enzymatic digest and analyzed using UHPLC-MS^2 as described in a previous publication. The external calibration curve was generated by serially diluting pure cAzadC [20 pmol, 10 pmol, 5 pmol, 2.5 pmol, 1.25 pmol, 0.625 pmol, 0.3125 pmol] and measuring it in technical triplicates prior to each measurement. Linear regression was done by OriginPro 2016G.
We investigated if the disarming effect described in Example 3 would influence the biological functions. We used for this purpose mouse embryonic stem cells (mESC) that were primed in serum/Lif as a model system, since mdC levels increase from naïve to primed state. We added cAzadC 1 in two different concentrations (1 μM and 5 μM) to mESC that have been primed for 48 h and allowed the cells to further proliferate under priming conditions in the presence of cAzadC 1 for additional 72 h. After the 72 h, we harvested the cells, isolated the DNA and digested the DNA down to the nucleoside level using our described protocol.
The levels of mdC were finally precisely quantified using isotope dilution UHPLC-MS^2. To this end, isotopically labelled standards of the nucleosides were spiked-in for exact quantification. In addition to mdC, we quantified the levels of 5-hydroxymethyl-2′-deoxycytidine (hmdC), which is formed from mdC by the action of TET enzymes. The absolute levels of hmdC are in mESC more than ten times lower than the mdC levels. The consequence is that even after a substantial reduction of mdC, there should be sufficient mdC to keep the hmdC levels constant. The question if and by how much the hmdC level is affected can therefore inform us about how epigenetic reprogramming is organized.
Parallel to the quantification of mdC and hmdC we also quantified to which extend cAzadC 1 itself was incorporated into the genome of the mESC. Detection of AzadC in the genome of treated cells is only possible after treatment of the DNA with NaBH4. Application of NaBH4 reduces the C(5)=C(6) double bond, which stabilizes the compound so that its quantification becomes possible. To our delight, we noted that the stability of cAzadC 1 allowed its quantification without this pre-treatment. We also noted that the applied enzymatic digestion protocol allowed to digest genomic DNA (gDNA) even in the presence of large amounts of cAzadC 1. Taken together, quantification of cAzadC 1 by UHPLC-MS^2 using an external calibration curve was possible in parallel to quantification of canonical and epigenetic bases.

intact compound remaining ([1]; pH=5.5, 14 d) | intact compound remaining ([1]; pH=8.5, 14 d) | stability compared with decitabine [3] | Structure (SMILES) | hydrolytic stability / degradation ([1]; 14 d) | intact compound remaining / degradation ([1]; physiological pH (7.4), 14 d) | decrease of mdC to % of the original value ([2]; 24 h, 1 μM) [%] | level incorporated into the genome ([2]; applied with 1 μM) | hmdC levels reduced to ([4]; 1 μM, 72 h) | nucleotides integrated into the genome ([4]; 1 μM, 72 h) [million] | level incorporated into the genome ([4]; 1 μM, 72 h) | incorporated level relative to the AzadC level ([4]; 1 μM, compared with AzadC at 1 μM [19]) | increase of incorporated level, 5 μM versus 1 μM ([4]; 5 μM versus 1 μM) [fold] | nucleotides integrated per genome ([4]; 5 μM, 72 h) | hmdC detection ([4]; 5 μM, 72 h, 0.5 μg of genomic DNA) | level incorporated into the genome ([4]; 5 μM, 72 h) | mdC levels, of the original value ([4]; 72 h at 5 µM concentration in the medium) | reduction of the mdC values ([4]; 72 h at 1 M cAzadC in the medium) [%] | mdC level relative to the control levels ([4]; summary, concentration not given) [%]
only hardly detectable | only hardly detectable | – | Nc1ncn([C@H]2C[C@H](O)[C@@H](CO)O2)c(=O)n1 [AzadC, 5-Aza-2′-deoxycytidine] | strongly degraded; also recorded: severe hydrolytic decomposition | still present after 14 d but the level of degradation is dramatic | 50 | 1.2×10^−3 AzadC per dN | – | – | – | – | – | – | – | – | – | – | –
– | – | much more stable | Nc1ncn([C@@H]2C[C@H](CO)[C@@H](O)[C@H]2O)c(=O)n1 [cAzaC 20, 4-Amino-1-[(1′R,2′S,3′R,4′R)-2′,3′-bishydroxy-4′-(hydroxymethyl) -cyclopentyl]-1H-[1,3,5]-triazin-2-one] | – | – | – | – | – | – | – | – | – | – | – | – | – | – | –
– | – | – | Nc1ncn([C@@H]2C[C@H](CO)[C@@H](O)C2)c(=O)n1 [cAzadC 1, 4-Amino-1-[(1′R,3′S,4′R)-3′-hydroxy-4′-(hydroxymethyl)-cyclopentyl]-1H -[1,3,5]triazin-2-one] | no degradation; also recorded: stable at all three pH values | – | – | – | about 50% | ~3 | 5×10^−4 cAzadC per dN | about a third | 3 | more than 8 million | unable to detect hmdC above background levels | 1.7×10^−3 cAzadC per dN | about 50% | ~30 | 70

— patent US20220332737A1, “CARBOCYCLIC NUCLEOSIDE ANALOGUE” (Ludwig-Maximilians-Universität München, priority 2019, published 2022)
